What all share (conditions): COS-7 membranes
In one assay the target is T1, α1a-AR (Homo sapiens, UniProt P35348).
T1 construct: expressed in transfected cells; host or cells: COS-7 cells (African Green monkey kidney), membranes
T1 sequence (P35348 1-466): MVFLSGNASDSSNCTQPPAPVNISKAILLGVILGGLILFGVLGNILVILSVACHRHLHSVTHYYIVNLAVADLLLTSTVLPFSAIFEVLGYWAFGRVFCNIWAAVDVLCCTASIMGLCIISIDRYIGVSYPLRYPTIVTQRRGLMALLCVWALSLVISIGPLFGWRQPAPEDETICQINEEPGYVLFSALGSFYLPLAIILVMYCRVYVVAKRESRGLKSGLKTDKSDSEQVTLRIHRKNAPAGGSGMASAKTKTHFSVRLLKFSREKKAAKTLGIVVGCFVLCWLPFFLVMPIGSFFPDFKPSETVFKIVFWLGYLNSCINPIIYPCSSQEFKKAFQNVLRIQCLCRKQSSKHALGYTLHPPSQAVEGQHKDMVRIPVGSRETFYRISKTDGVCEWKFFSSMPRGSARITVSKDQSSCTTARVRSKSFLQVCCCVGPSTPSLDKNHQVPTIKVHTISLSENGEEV
As to the kind of experiment: α1-Adrenergic Receptor Binding Assay, 125I-HEAT radio-ligand binding, transfected COS-7 cell membranes, α1a subtype. How it is done:
(§1) Membranes were prepared from COS-7 cells (African Green monkey kidney SV40-transformed cells) that had been transfected with one of the three α1-AR subtypes by the following method: COS cells from ten 100 mm tissue culture plates were scraped into a 5 ml volume of TE (a mixture of 50 mM tris(hydroxymethyl)aminomethane hydrochloride (Tris-HCl) and 5 mM ethylenediaminetetraacetic acid (EDTA) at pH 7.4). The cell suspension was disrupted with a Brinkman Polytron (at a setting of 8) for 10 sec. The disrupted cells were centrifuged at 1000×g for 10 min at 4° C. Supernatants were centrifuged at 34,500×g for 20 min at 4° C. The membrane pellets were suspended in a 2 ml volume of TNE (a mixture of 50 mM Tris-HCl, 5 mM EDTA and 150 mM NaCl at pH7.4). An aliquot of the membrane suspension was stored at −70° C. until use. The protein concentration was determined using a BioRad “DC” protein assay kit following membrane solubilization with Triton X-100.
(§2) Triplicate determinations of radio-ligand binding in the presence of increasing concentrations of testing compound were made. The reagents were added to 96-well polypropylene plate wells. Each assay well contained 140 μL TNE, 25 μL 125′-2-(β-4-hydroxyphenyl)ethylaminomethyltetralone (^125I-HEAT) (specific activity 2200 Ci/mmol, Dupont-New England Nuclear, […] final), 10 μL testing compound dissolved in dimethyl sulfoxide (DMSO) ([…] to 10 μM in half-log increments, final), and 25 μL appropriate α1-AR membrane subtype suspension in TNE (0.5 ng/μL for the α1a and α1b subtypes and 13 ng/μL for the α1d subtype). The plate was incubated at rt for 1 hr. The contents of the wells were filtered through a glass filter (type C) (GF/C) membrane Unifilter plate (Packard Instruments) using the Packard Filtermate cell harvester. The filter plates were dried in a vacuum oven for 30 min at 40° C. 25 μL Microscint 20 liquid scintillation fluid (Packard Instuments) was added to each well. The radioactive content was analyzed in the TopCount microplate scintillation counter (Packard Instruments).
(§3) The Ki values (in nM) shown in Table 1 were determined using GraphPad Prism software.

For a further assay, the target named is T2, α1b-AR (Homo sapiens, UniProt P35368).
T2 construct: expressed in transfected cells; host or cells: COS-7 cells (African Green monkey kidney), membranes
T2 sequence (P35368 1-520): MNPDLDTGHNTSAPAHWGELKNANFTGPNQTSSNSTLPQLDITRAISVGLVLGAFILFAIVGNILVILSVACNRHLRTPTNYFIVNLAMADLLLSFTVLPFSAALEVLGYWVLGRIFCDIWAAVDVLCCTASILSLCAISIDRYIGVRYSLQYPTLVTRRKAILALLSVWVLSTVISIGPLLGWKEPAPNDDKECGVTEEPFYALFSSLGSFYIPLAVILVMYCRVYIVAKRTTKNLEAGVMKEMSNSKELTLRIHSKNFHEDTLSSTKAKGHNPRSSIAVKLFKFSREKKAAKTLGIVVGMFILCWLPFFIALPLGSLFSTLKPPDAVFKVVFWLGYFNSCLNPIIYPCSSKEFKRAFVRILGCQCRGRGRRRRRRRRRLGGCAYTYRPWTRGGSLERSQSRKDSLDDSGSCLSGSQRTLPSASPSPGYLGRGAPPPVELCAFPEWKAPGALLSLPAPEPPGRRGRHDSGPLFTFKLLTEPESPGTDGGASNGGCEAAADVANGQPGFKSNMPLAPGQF
In words: α1-Adrenergic Receptor Binding Assay, 125I-HEAT radio-ligand binding, transfected COS-7 cell membranes, α1b subtype. As to the method: as §1, §2, §3

The target of the next assay is T3, α1d-AR (Homo sapiens, UniProt P25100).
T3 construct: expressed in transfected cells; host or cells: COS-7 cells (African Green monkey kidney), membranes
T3 sequence (P25100 1-572): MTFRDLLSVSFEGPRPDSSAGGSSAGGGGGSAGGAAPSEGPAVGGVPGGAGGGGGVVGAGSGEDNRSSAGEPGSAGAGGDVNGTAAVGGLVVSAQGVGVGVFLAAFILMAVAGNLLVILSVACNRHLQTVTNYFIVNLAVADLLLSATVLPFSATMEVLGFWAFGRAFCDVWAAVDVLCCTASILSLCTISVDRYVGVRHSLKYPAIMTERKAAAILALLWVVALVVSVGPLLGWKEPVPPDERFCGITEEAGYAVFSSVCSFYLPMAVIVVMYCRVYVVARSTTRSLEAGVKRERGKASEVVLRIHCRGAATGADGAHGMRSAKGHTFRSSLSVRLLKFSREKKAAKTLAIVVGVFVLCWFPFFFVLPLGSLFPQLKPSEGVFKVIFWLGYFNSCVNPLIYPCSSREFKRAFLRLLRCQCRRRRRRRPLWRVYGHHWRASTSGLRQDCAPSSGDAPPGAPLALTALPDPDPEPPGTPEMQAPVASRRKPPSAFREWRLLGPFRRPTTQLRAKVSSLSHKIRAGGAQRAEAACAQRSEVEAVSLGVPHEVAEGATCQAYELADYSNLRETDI
As to the kind of experiment: α1-Adrenergic Receptor Binding Assay, 125I-HEAT radio-ligand binding, transfected COS-7 cell membranes, α1d subtype. As to the method: as §1, §2, §3

[1] abbreviates: average value, read-out: Alpha 1 Ki α1a (1) Average Value.
The mark [2] stands for this setting: individual values, read-out: Alpha 1 Ki α1a (2) Individual Values.
[3] abbreviates: average value, read-out: Alpha 1 Ki α1b (1) Average Value.
Where [4] appears, read: individual values, read-out: Alpha 1 Ki α1b (2) Individual Values.
The mark [5] stands for this setting: average value, read-out: Alpha 1 Ki α1d (1) Average Value.
Where [6] appears, read: individual values, read-out: Alpha 1 Ki α1d (2) Individual Values.

Several values for one entry are separate records, joined by “and”; a condition that tells them apart may be missing. Identical values can stand only once. Like-named read-outs stand apart in the source and are kept apart here.

On to `CC(C)Oc1ccccc1N1CCN(CC2CC(C(=O)N3CCc4ccc(N)cc43)=NO2)CC1` (centres unmarked) [Compound 14, (6-amino-2,3-dihydro-indol-1-yl)-{5-[4-(2-isopropoxy-phenyl)-piperazin-1-ylmethyl]-4,5-dihydro-isoxazol-3-yl}-methanone], for which the Ki on α1a-AR (setting [1]) turned out to be 2 nM; at α1a-AR (setting [2]), 2 nM; on α1b-AR (setting [3]), 141 nM; on α1b-AR (setting [4]) it was 141 nM; on α1d-AR (setting [5]) it was 2.8 nM; on α1d-AR (setting [6]) it was 2.8 nM.
With `COc1cc2c(cc1OC)N(C(=O)C1=NOC(CN3CCN(c4ccccc4OC(C)C)CC3)C1)CC2` (centres unmarked) [Compound 23, (5,6-dimethoxy-2,3-dihydro-indol-1-yl)-{5-[4-(2-isopropoxy-phenyl)-piperazin-1-ylmethyl]-4,5-dihydro-isoxazol-3-yl}-methanone], the Ki amounted to 5.65 nM on α1a-AR (setting [1]); 5.65 nM at α1a-AR (setting [2]); 259 nM at α1b-AR (setting [3]); 259 nM at α1b-AR (setting [4]); 6.56 nM at α1d-AR (setting [5]); 6.56 nM on α1d-AR (setting [6]).
As to `CC(=O)N1CCc2cc(NC(=O)C3=NOC(CN4CCN(c5ccccc5OC(C)C)CC4)C3)ccc21` (centres unmarked) [Compound 22, 5-[4-(2-isopropoxy-phenyl)-piperazin-1-ylmethyl]-4,5-dihydro-isoxazole-3-carboxylic acid (1-acetyl-2,3-dihydro-1H-indol-5-yl)-amide], the Ki at α1a-AR (setting [1]) was 2.02 nM; on α1a-AR (setting [2]), 2.54 nM and 1.5 nM; at α1b-AR (setting [3]) it was 80.4 nM; at α1b-AR (setting [4]), 73 nM and 87.7 nM; on α1d-AR (setting [5]), 1.81 nM; on α1d-AR (setting [6]), 1.5 nM and 2.13 nM.
For the molecule `CC(C)Oc1ccccc1N1CCN(CC2CC(C(=O)N3CCc4ccccc43)=NO2)CC1` (centres unmarked) [Compound 10, (2,3-dihydro-indol-1-yl)-{5-[4-(2-isopropoxy-phenyl)-piperazin-1-ylmethyl]-4,5-dihydro-isoxazol-3-yl}-methanone], the Ki at α1a-AR (setting [1]) was 2.12 nM; on α1a-AR (setting [2]) it was 1.4 nM and 3.4 nM and 3.1 nM and 1.9 nM and 0.8 nM; on α1b-AR (setting [3]), 107 nM; on α1b-AR (setting [4]), 90 nM and 145 nM and 92 nM and 87.6 nM and 121 nM; at α1d-AR (setting [5]), 1.3 nM.
For `CC(C)Oc1ccccc1N1CCN(CC2CC(C(=O)N3CCN(c4ccccc4OC(C)C)CC3)=NO2)CC1` (centres unmarked) [Compound 17, [4-(2-isopropoxy-phenyl)-piperazin-1-yl]-{5-[4-(2-isopropoxy-phenyl)-piperazin-1-ylmethyl]-4,5-dihydro-isoxazol-3-yl}-methanone], the Ki came out at 16.3 nM on α1a-AR (setting [1]); 16.3 nM at α1a-AR (setting [2]); 187 nM at α1b-AR (setting [3]); 187 nM at α1b-AR (setting [4]); 6.6 nM at α1d-AR (setting [5]); 6.6 nM on α1d-AR (setting [6]).
Take `CC(C)Oc1ccccc1N1CCN(CC2CC(C(=O)N3CC(C)(C)c4cc(Br)ccc43)=NO2)CC1` (centres unmarked) [Compound 19, (5-bromo-3,3-dimethyl-2,3-dihydro-indol-1-yl)-{5-[4-(2-isopropoxy-phenyl)-piperazin-1-ylmethyl]-4,5-dihydro-isoxazol-3-yl}-methanone]: the Ki at α1a-AR (setting [1]) was 13 nM; at α1a-AR (setting [2]), 13 nM; at α1b-AR (setting [3]) it was 280 nM; on α1b-AR (setting [4]) it was 302 nM and 258 nM; at α1d-AR (setting [5]), 0.6 nM; on α1d-AR (setting [6]), 0.4 nM and 0.8 nM.
Consider `CC(C)Oc1ccccc1N1CCN(CC2CC(CN3CCc4ccccc43)=NO2)CC1` (centres unmarked) [Compound 4, 1-{5-[4-(2-isopropoxy-phenyl)-piperazin-1-ylmethyl]-4,5-dihydro-isoxazol-3-ylmethyl}-2,3-dihydro-1H-indole], for which the Ki at α1a-AR (setting [1]) stood at 1.9 nM; at α1a-AR (setting [2]), 1.9 nM; on α1b-AR (setting [3]), 101 nM; on α1b-AR (setting [4]), 101 nM; at α1d-AR (setting [5]), 10 nM; at α1d-AR (setting [6]) it was 10 nM.
Take `CC(C)Oc1ccccc1N1CCN(CC2CC(C(=O)N3CCOCC3)=NO2)CC1` (centres unmarked) [Compound 28, {5-[4-(2-isopropoxy-phenyl)-piperazin-1-ylmethyl]-4,5-dihydro-isoxazol-3-yl}-morpholin-4-yl-methanone]: the Ki on α1a-AR (setting [1]) came out at 3 nM; at α1a-AR (setting [2]), 3 nM; at α1b-AR (setting [3]), 691 nM; on α1b-AR (setting [4]) it was 691 nM; at α1d-AR (setting [5]), 27.2 nM; on α1d-AR (setting [6]) it was 27.2 nM.
As for `CC(C)Oc1ccccc1N1CCN(CC2CC(C(=O)N3CCc4cc(Cl)ccc43)=NO2)CC1` (centres unmarked) [Compound 16, (5-chloro-2,3-dihydro-indol-1-yl)-{5-[4-(2-isopropoxy-phenyl)-piperazin-1-ylmethyl]-4,5-dihydro-isoxazol-3-yl}-methanone], the Ki on α1a-AR (setting [1]) worked out at 8.3 nM; on α1a-AR (setting [2]), 8.3 nM; at α1b-AR (setting [3]) it was 133 nM; at α1b-AR (setting [4]), 133 nM; on α1d-AR (setting [5]), 4.7 nM; on α1d-AR (setting [6]), 4.7 nM.
Regarding `CC(C)Oc1ccccc1N1CCN(CC2CC(C(=O)N3CCCC3)=NO2)CC1` (centres unmarked) [Compound 35, {5-[4-(2-isopropoxy-phenyl)-piperazin-1-ylmethyl]-4,5-dihydro-isoxazol-3-yl}-pyrrolidin-1-yl-methanone], the Ki on α1a-AR (setting [1]) was 3.65 nM; on α1a-AR (setting [2]) it was 1.6 nM and 5.7 nM; on α1b-AR (setting [3]) it was 212 nM; on α1b-AR (setting [4]), 183 nM and 242 nM; at α1d-AR (setting [5]), 9 nM; on α1d-AR (setting [6]) it was 11 nM and 7 nM.
In the case of `COc1cccc(CNc2ccc3c(c2)N(CC2=NOC(CN4CCN(c5ccccc5OC(C)C)CC4)C2)CC3)c1` (centres unmarked) [Compound 9, (1-{5-[4-(2-isopropoxy-phenyl)-piperazin-1-ylmethyl]-4,5-dihydro-isoxazol-3-ylmethyl}-2,3-dihydro-1H-indol-6-yl)-(3-methoxy-benzyl)-amine], the Ki was determined as 34 nM at α1a-AR (setting [1]); 34 nM at α1a-AR (setting [2]); 195 nM at α1b-AR (setting [3]); 195 nM on α1b-AR (setting [4]); 22 nM on α1d-AR (setting [5]); 22 nM at α1d-AR (setting [6]).

(Values after patent US20080221116A1, “ISOXAZOLINE ALPHA 1a/1d ADRENORECEPTOR ANTAGONISTS” (priority 2006, published 2008).)
